From patent US8822509B2, “Pain-relieving compositions and uses therefor” (priority 2006, dated 2014)
Where two headings read alike, the source gives them in different places. Marks after values point to notes of the source that are not given here.

Columns and labels:
[1] = molecular target: T1, μ-opioid receptors (MOP receptors) (Mus musculus, UniProt P42866); format: cell-based
T1 construct: expressed in transfected cells; host or cells: HEK293
Description: Briefly, HEK-MOP cells were pre-incubated with 2% (2-hydroxypropyl)-β-cyclodextrin (βCD) for 1 h at 37° C. to deplete cholesterol from caveloae in the cell membrane. Cells were washed with DMEM and then utilized in the forskolin-stimulated cAMP assay as described above. […] Cells were washed with DMEM and then utilized in the forskolin-stimulated cAMP assay as described above.

[2] = In vitro NO release (Total NOx, modified Griess reagent assay); conditions: assay of Example 9; for 1 Hour Total NOx: NOx analysis at 1 hour; for 6 Hours Total NOx: NOx analysis at 6 hours
Description: Briefly, HEK-MOP cells were seeded at 1×10^5 cells/mL and grown in 10 cm plates to 90% confluence. Four hours prior to experimentation, cell medium was replaced with phenol red-free DMEM. […] Following removal of each supernatant sample, it was replaced with 500 μL of phenol red-free DMEM. Samples were immediately placed on ice until NOx concentrations were quantified.
Sample aliquots (100 μL) were added to 96-well plates in duplicates. Nitrate was first converted to nitrite to determine total NOx concentrations with the addition of 100 μL aliquots of vanadium (III) chloride in 1M HCl (800 mg/100 mL) per well, followed by 100 μL aliquots of modified Griess reagent which converted nitrite to a deep purple azo derivative for spectrophotometric quantification at 560 nm using an Envision Multilabel Plate Reader (PerkinElmer Life Sciences). […] Total NOx and nitrite concentration was determined through inverse prediction against the nitrite standard curve.

[3] = molecular target: T1, μ-opioid receptors (MOP receptors); format: cell-based; remark: listed apart in the source
[4] = system: mechanical allodynia in rats hyporesponsive to morphine; experiment: Relief of mechanical allodynia (PWT) in rats hyporesponsive to morphine; format: in vivo

T1 sequence (P42866 whole entry): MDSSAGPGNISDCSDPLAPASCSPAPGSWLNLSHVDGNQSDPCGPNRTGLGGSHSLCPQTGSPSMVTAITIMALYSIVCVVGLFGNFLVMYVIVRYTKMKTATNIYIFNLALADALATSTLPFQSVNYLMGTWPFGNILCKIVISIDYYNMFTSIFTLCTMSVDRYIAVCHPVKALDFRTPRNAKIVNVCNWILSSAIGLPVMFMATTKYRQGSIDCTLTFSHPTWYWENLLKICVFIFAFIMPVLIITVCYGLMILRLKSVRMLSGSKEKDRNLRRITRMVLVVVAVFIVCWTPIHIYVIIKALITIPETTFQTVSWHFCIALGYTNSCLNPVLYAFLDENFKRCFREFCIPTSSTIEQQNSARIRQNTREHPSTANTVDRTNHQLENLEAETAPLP

| Structure (SMILES) | % of forskolin stimulated cyclic AMP response ([1]; Conc 10^−3 M) [%] | % of forskolin stimulated cyclic AMP response ([1]; Conc 10^−4 M) | % of forskolin stimulated cyclic AMP response ([1]; Conc 10^−5 M) | % of forskolin stimulated cyclic AMP response ([1]; Conc 10^−6 M) | % of forskolin stimulated cyclic AMP response ([1]; Conc 10^−7 M) [%] | % of forskolin stimulated cyclic AMP response ([1]; Conc 10^−8 M) | % of forskolin stimulated cyclic AMP response ([1]; Conc 10^−9 M) | % of forskolin stimulated cyclic AMP response ([1]; Conc 10^−11 M) [%] | % of forskolin stimulated cyclic AMP response ([1]; Conc 10^−13 M) [%] | % of forskolin stimulated cyclic AMP response ([1]; Conc 10^−14 M) | % of forskolin stimulated cyclic AMP response ([1]; Conc 10^−15 M) | % of forskolin stimulated cyclic AMP response ([1]; Conc 10^−16 M) | % of forskolin stimulated cyclic AMP response ([1]; Conc 10^−17 M) | % of forskolin stimulated cyclic AMP response ([1]; Conc 10^−18 M) | 1 Hour Total NOx [2] [µM] | 6 Hours Total NOx [2] [µM] | % of forskolin stimulated cyclic AMP response ([3]; Conc 10^−10 M) [%] | % of forskolin stimulated cyclic AMP response ([3]; Conc 10^−12 M) [%] | also measured |
| --- | --- | --- | --- | --- | --- | --- | --- | --- | --- | --- | --- | --- | --- | --- | --- | --- | --- | --- | --- |
| Cc1c(C(=O)O)no[n+]1[O-] [Compound 6] | 8.1 | 115.0% | 138.7% | 109.7% | 110.5 | 111.2% | 88.2% | 88.0 | 128.0 | 98.2% | 79.0^a % | 149.0% | 83.9% | 60.4% | 0.31 | 0.53 | 61.5 | 91.1 |  |
| O=C1CCc2c1no[n+]2[O-] [Compound 16] | 18.9 | 44.3% | 105.2% | 83.5% | 119.9 | 62.2% | 125.4% | 67.1 | 98.8 | 106.3% | 97.7% | 108.3% | 100.4% | 62.4^a % | 1.08 | 1.19 | 101.3 | 59.3 |  |
| O=C(O)CCCCO[N+](=O)[O-] [Compound 33, 5-nitratopentanoic acid] |  |  |  |  |  |  |  |  |  |  |  |  |  |  | 13.14 | 67.69 |  |  | relief of mechanical allodynia ([4]; Compound 33 80 nmol/kg s.c. bolus): insignificant relief; relief of mechanical allodynia ([4]; Compound 33 120, 800 and 1200 nmol/kg s.c. bolus): significant relief of mechanical allodynia; duration of anti-allodynia ([4]; Compound 33 s.c. bolus): 2 to 3 h; time of peak anti-allodynia post-dosing ([4]; Compound 33 s.c. bolus): 0.75 to 1 h; inhibition of forskolin-stimulated cyclic AMP formation ([3]; μm to mm range (so in the source)): dose dependent inhibition |
| Cc1c(-c2ccc(F)cc2)no[n+]1[O-] [Compound 23] | 46.6 | 121.2% | 66.2% | 90.0% | 89.0 | 98.2% | 64.0% | 75.7 | 87.6 | 79.2% | 80.4% | 77.1% | 73.6% | 80.2% |  |  | 56.5 | 74.7 |  |
| [O-][n+]1onc(-c2ccccc2)c1-c1ccccc1 [Compound 5] | 69.6 | 99.8% | 120.4% | 142.4% | 112.7 | 73.6% | 57.7% | 76.3 | 102.3 | 105.6% | 117.0% | 91.2% | 75.8% | 68.7% |  |  | 79.2 | 119.1 |  |
| O=C(c1no[n+]([O-])c1-c1ccccc1)C(F)(F)F [Compound 22] | 0.3 | 18.2% | 77.9% | 87.5% | 68.4 | 82.1% | 65.2% | 59.2 | 70.5 | 104.6% | 89.0% | 73.2% | 59.4^b % | 47.0% | 1.63 | 2.52 | 66.1 | 62.4 |  |
| Cc1c(-c2ccccc2)no[n+]1[O-] [Compound 13] | 40.2 | 67.1% | 109.4^a % | 84.5^a % | 78.8 | 80.3% | 94.9% | 66.3 | 89.6 | 99.4^a % | 101.5% | 88.3^a % | 105.3% | 61.2% |  |  | 106.9 | 108.8 |  |
| O=Cc1c(-c2ccccc2)no[n+]1[O-] [Compound 14] | 8.5 | 40.7^a % | 51.0^a % | 110.6^a % | 121.5 | 113.2^a % | 107.4% | 62.7 | 94.2 | 103.4^a % | 103.8% | 129.8% | 120.5% | 95.1% |  |  | 69.5 | 92.8 |  |
| [O-][n+]1onc(-c2ccc(F)cc2)c1-c1ccc(F)cc1 [Compound 21] | 7.1 | 42.1% | 63.5% | 53.0% | 47.3 | 57.5% | 46.5% | 29.9 | 61.5 | 59.7% | 64.0% | 67.7% | 49.1% | 38.7% |  |  | 38.4 | 42.9 |  |
| O=C(O)c1c(-c2ccc(F)cc2)no[n+]1[O-] [Compound 18] | 7.1 | 79.0% | 97.7% | 101.0% | 91.9 | 81.7% | 142.3^a % | 77.5 | 85.4 | 85.3% | 90.4% | 89.6% | 94.1% | 54.7^a % |  |  | 83.6 | 82.2 |  |
